# Assay results as given in patent US6541495B1, “Carboxylic acid derivatives as inhibitors of hyperproliferation diseases” (Pfizer INC, priority 1999, dated 2003).
# Target: T1, VEGF/GAG (glycosaminoglycan) binding (purified VEGF165, [125I]heparin-16-mer) (Homo sapiens, UniProt P15692)
# T1 construct: purchased Repligen, Inc
# T1 sequence (P15692 27-191 isoform P15692-4): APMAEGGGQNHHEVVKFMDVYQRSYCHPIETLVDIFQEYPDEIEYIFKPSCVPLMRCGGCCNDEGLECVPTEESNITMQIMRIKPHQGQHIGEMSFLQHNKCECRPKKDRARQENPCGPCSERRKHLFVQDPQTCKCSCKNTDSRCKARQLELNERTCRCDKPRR
# Assay: VEGF/GAG (glycosaminoglycan) binding inhibition, [125I]heparin-16-mer filter plate assay
# Details: activity data for representative compounds of formula I; in vitro VEGF165 / [125I]heparin-16-mer binding, 60 minutes at room temperature
# Method: The in vitro activity of the compounds of formula I in inhibiting VEGF/GAG (glycosaminoglycan) binding may be measured using the assay described in U.S. Pat. No. 5,795,860, the subject matter of which is incorporated herein by reference.
# Using mixed cellulose ester 96-well filter plates, 150 μL of Dulbeccos PBS (phosphate buffered saline) containing 10% ovalbumin is added. Compound (5.0 μL) is added at a final concentration of 1.8 μM. Compounds are dissolved in 8% DMSO (final DMSO concentration is 0.16%) and tested at concentrations of 32, 10, 3.2, 1.0, 0.32 and 0.10 μM. A mixture of [^125I]heparin-16-mer (4500 cpm per well), purified VEGF165 (20 nM final concentration/well, prepared by Repligen, Inc.) and Dulbeccos PBS with 10% ovalbumin is added to the 96-well plate in a volume of 100 μL. Nonspecific binding is defined using 10 μM heparin-sodium from porcine intestinal mucosa. The assay plate is incubated for 60 minutes at room temperature, filtered using a Millipore filtration apparatus, the plastic bottom plate is removed and the filter plate is allowed to completely dry. The plate bottom is sealed with plastic plate seal and 25 μL of scintillation cocktail is added to each well. The top plate is sealed and is counted for radioactivity on a Microbeta Scintillation Counter. The assay is run in a final volume of 250 μL.
row,SMILES,IC50
1,Cc1oc(-c2ccccc2)nc1Cc1cc2cc(CC(OCCCO)C(=O)O)ccc2o1 (stereo not drawn) [2-(3-Hydroxy-propoxy)-3-[2-(5-methyl-2-phenyl-oxazol-4-ylmethyl)-benzofuran-5-yl]-propionic acid],14 µM
2,C=CCOC(Cc1ccc2oc(Cc3nc(-c4ccccc4)oc3C)cc2c1)C(=O)O (stereo not drawn) [2-Allyloxy-3-[2-(5-methyl-2-phenyl-oxazol-4-ylmethyl)-benzofuran-5-yl]-propionic acid],13 µM
3,Cc1oc(-c2ccccc2)nc1Cc1cc2cc(CC(SCc3ccccc3)C(=O)O)ccc2o1 (stereo not drawn) [2-Benzylsulfanyl-3-[2-(5-methyl-2-phenyl-oxazol-4-ylmethyl)-benzofuran-5-yl]-propionic acid],2.6 µM
4,CSC(Cc1ccc2oc(Cc3nc(-c4cccc(C)c4)oc3C)cc2c1)C(=O)O (stereo not drawn) [2-Methylsulfanyl-3-[2-(5-methyl-2-m-tolyl-oxazol-4-ylmethyl)-benzofuran-5-yl]-propionic acid],8 µM
5,CCCCCCCCSC(Cc1ccc2oc(Cc3nc(-c4ccccc4)oc3C)cc2c1)C(=O)O (stereo not drawn) [3-[2-(5-Methyl-2-phenyl-oxazol-4-ylmethyl)-benzofuran-5-yl]-2-octylsulfanyl-propionic acid],0.8 µM
6,Cc1oc(-c2ccccc2)nc1Cc1cc2cc(CC(Oc3ccccc3)C(=O)O)ccc2o1 (stereo not drawn) [3-[2-(5-Methyl-2-phenyl-oxazol-4-ylmethyl)-benzofuran-5-yl]-2-phenoxy-propionic acid],2 µM
7,CCCSC(Cc1ccc2oc(Cc3nc(-c4ccccc4)oc3C)cc2c1)C(=O)O (stereo not drawn) [3-[2-(5-Methyl-2-phenyl-oxazol-4-ylmethyl)-benzofuran-5-yl]-2-propylsulfanyl-propionic acid],1.5 µM
8,Cc1oc(-c2ccccc2)nc1Cc1cc2cc(CCC(=O)O)ccc2o1 [3-[2-(5-Methyl-2-phenyl-oxazol-4-ylmethyl)-benzofuran-5-yl]-propionic acid],6.8 µM
9,CSC(Cc1ccc(OCCc2nc(-c3ccccc3)oc2C)cc1)C(=O)O (stereo not drawn) [3-{4-[2-(5-Methyl-2-phenyl-oxazol-4-yl)-ethoxy]-phenyl}-2-methylsulfanyl-propionic acid],4.5 µM
